Data taken from patent publication US9243255B2, “Bacterial strains, plasmids, method of producing bacterial strains capable of chemolithotrophic arsenites oxidation and uses thereof” (UNIWERSYTET WARSZAWSKI, priority 2012, dated 2016).

Assays:
[1] = test system: A. tumefaciens D10; assay: Resistance to As(III); format: cell-based, Agrobacterium tumefaciens; conditions: A. tumefaciens D10 with pSinA
[2] = test system: Sinorhizobium sp. M14; assay: Resistance to As(III); format: cell-based
[3] = test system: Paracoccus alcaliphilus JCM7364R; assay: Sodium arsenite growth inhibition; format: cell-based; conditions: P. alcaliphilus JCM7364R
[4] = test system: Pseudomonas sp. OS29R; assay: Resistance to As(III); format: cell-based; conditions: in words
[5] = test system: Paracoccus aminophilus JCM7686; assay: As(III) (sodium arsenite) growth inhibition / MIC; format: cell-based
Protocol: (§1) FIG. 8. […] In order to compare the MICs for As(III), cultures were carried out in LB medium, with various concentrations of sodium arsenite (up to 20 mM). After 48 h of cultivation at 30° C., optical density of the cultures (OD600nm measurements of absorbance at 600 nm) was monitored.
(§2) In all the conjugations, transconjugants harbouring the plasmid pARS1 were obtained. To confirm that the newly constructed strains, harbouring the plasmid pARS1, have an increased resistance to arsenic, analysis of MIC—minimal concentration of As(III), inhibiting the growth of the following strains: Agrobacterium tumefaciens ARS3 (derivative of A. tumefaciens LBA288 harbouring the plasmid pARS1), Brevundimonas sp. ARS4 (derivative of Brevundimonas sp. sp. OS24R harbouring the plasmid pARS1), P. aminophilus ARS5 (derivative of P. aminophilus JCM7686 harbouring the plasmid pARS1) was carried out. Wild-type strains were used as the control. Growth experiment and MIC analysis for As(III) was carried out in LB medium, with various concentrations of sodium arsenite (up to 20 mM). After 48 h of cultivation at 30° C., optical density of cultures at OD600nm was monitored. […] MIC for As(III) for A. tumefaciens LBA288 strain was 1 mM, while for its derivative, comprising the plasmid pARS1, 20 mM; for P. aminophilus JCM7686R strain 5 mM, while for its derivative, containing the plasmid pARS1, 20 mM. In turn Brevundimonas sp. OS24R could tolerate the maximum of 10 mM of As(III), and its derivative harbouring the plasmid pARS1 was resistant to 20 mM of As(III). The conducted analyses allowed to confirm that the derivative of the plasmid pSinA, comprising the ars module (sequence from 43229 to 50772) can be used for constructing strains with increased resistance to arsenic.

[6] = test system: Agrobacterium tumefaciens LBA288; assay: As(III) (sodium arsenite) growth inhibition / MIC; format: cell-based
Protocol: as §1, §2

[7] = test system: Brevundimonas sp. OS24R; assay: As(III) (sodium arsenite) growth inhibition / MIC; format: cell-based
Protocol: as §1, §2

[8] = test system: Stenotrophomonas sp. LM24R; assay: Sodium arsenite growth inhibition; format: cell-based
[9] = test system: P. aminophilus ARS5 (derivative of P. aminophilus JCM7686 harbouring the plasmid pARS1); assay: MIC for As(III); format: cell-based; conditions: Paracoccus aminophilus, derivative with pARS1, LB medium, 48 h, 30° C.
Protocol: as §1, §2

[10] = test system: Agrobacterium tumefaciens ARS3 (derivative of A. tumefaciens LBA288 harbouring the plasmid pARS1); assay: MIC for As(III); format: cell-based; conditions: derivative with pARS1, LB medium, 48 h, 30° C.
Protocol: as §1, §2

[11] = test system: Brevundimonas sp. ARS4 (derivative of Brevundimonas sp. OS24R harbouring the plasmid pARS1); assay: MIC for As(III); format: cell-based; conditions: derivative with pARS1; LB medium, 48 h, 30° C.
Protocol: as §1, §2

[12] = test system: Paracoccus aminovorans JCM7685; assay: Sodium arsenite growth inhibition; format: cell-based; conditions: P. aminovorans JCM7685

O=[As]O [sodium arsenite]
resistant to As (III) (up to) [1]: up to 15 mM | resistant to As (III) (up to) [2]: up to 20 mM | concentration of sodium arsenite that inhibits growth [3]: 1 mM | resistance to As (III) [4]: resistant | concentration of sodium arsenite that inhibits growth ([5]; P. aminophilus JCM7686): 5 mM | MIC ([5]; Paracoccus aminophilus, JCM7686, 48 h, read-out: MIC for As(III)): 5 mM | concentration of sodium arsenite that inhibits growth ([6]; A. tumefaciens LBA288): 1 mM | MIC ([6]; Agrobacterium tumefaciens, LBA288, LB medium, 48 h, 30° C., OD600nm): 1 mM | concentration of sodium arsenite that inhibits growth ([7]; Brevundimonas sp. OS24R): 10 mM | resistance to As (III) ([7]; Brevundimonas sp. OS24R, in words): resistant | maximum of As(III) tolerated ([7]; LB medium, 48 h, 30° C., OD600nm): ≤ 10 mM | concentration of sodium arsenite that inhibits growth [8]: 1 mM | MIC [9]: 20 mM | MIC [10]: 20 mM | As(III) concentration the strain is resistant to [11]: 20 mM | concentration of sodium arsenite that inhibits growth [12]: 1 mM
